Measured values as given in US9506056B2, “Nucleic acid functionalized nanoparticles for therapeutic applications” (NORTHWESTERN UNIVERSITY, priority 2006, dated 2016).
Counter-ions that a name gives are not always drawn.

System: A549 cells
Experiment: Cell viability of dox-treated A549 cultures with oligonucleotide-modified nanoparticles
Format: cell-based, human
Settings: dox alone at 25 μm dox concentration
Experimental: As proof of the oligonucleotide-modified gold nanoparticle for drug control concept, the anticancer drug doxorubicin hydrochloride (dox) in a lung cancer cell model (A549) was investigated. […] However, when an oligonucleotide functionalized nanoparticle agent containing a non-specific sequence is added to the culture at the same point as the drug molecule, a dose-dependant recovery of cell viability is observed (cells recover to approximately 80% viable at 3 nM concentration of nanoparticles). The dox-treated cells were then examined in the presence of an anti-survivin oligonucleotide modified gold nanoparticle conjugate. […] In these studies, the anti-survivin containing nanoparticle agent added to the culture at the same point as the drug molecule reduce cell viability to 45% at low concentrations and recover cell viability to 75% at high concentrations (FIG. 3).

COc1cccc2c1C(=O)c1c(O)c3c(c(O)c1C2=O)C[C@@](O)(C(=O)CO)C[C@@H]3O[C@H]1C[C@H](N)[C@H](O)[C@H](C)O1 [dox, doxorubicin hydrochloride]
cell viability: approximately 60%
